Results taken from US12336981B2, “Compounds and compositions for the inhibition of NAMPT” (Valo Health, Inc., priority 2010, dated 2025).
Where two headings read alike, the source gives them in different places.

Experiments:
NAMPT = molecular target: T1, NAMPT (Homo sapiens, UniProt P43490); assay: Biochemical inhibition assay: NAMPT enzymatic reaction, NMN quantified by mass spectrometry; details: read-out: Biochem IC50
T1 construct: His tag; host or cells: E. coli
In short: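 Inhibition of E. coli-expressed His-tagged human NAMPT, measured as NMN formation by mass spectrometry after a 30 min room-temperature reaction containing 1 μM NAM, 100 μM PRPP and 2.5 mM ATP.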

A2780 cells = assay: In-vitro cell proliferation assay (SRB), A2780 cells; assay type: cell-based; details: Homo sapiens, A2780, 72 h, A2780 cells, 72 hours, read-out: A2780 IC50
In short: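 Viable cells measured by SRB staining after 6% TCA fixation, absorbance 570 nm. Media-only background subtracted; % inhibition derived at two compound concentrations.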

T1 sequence (P43490 whole entry): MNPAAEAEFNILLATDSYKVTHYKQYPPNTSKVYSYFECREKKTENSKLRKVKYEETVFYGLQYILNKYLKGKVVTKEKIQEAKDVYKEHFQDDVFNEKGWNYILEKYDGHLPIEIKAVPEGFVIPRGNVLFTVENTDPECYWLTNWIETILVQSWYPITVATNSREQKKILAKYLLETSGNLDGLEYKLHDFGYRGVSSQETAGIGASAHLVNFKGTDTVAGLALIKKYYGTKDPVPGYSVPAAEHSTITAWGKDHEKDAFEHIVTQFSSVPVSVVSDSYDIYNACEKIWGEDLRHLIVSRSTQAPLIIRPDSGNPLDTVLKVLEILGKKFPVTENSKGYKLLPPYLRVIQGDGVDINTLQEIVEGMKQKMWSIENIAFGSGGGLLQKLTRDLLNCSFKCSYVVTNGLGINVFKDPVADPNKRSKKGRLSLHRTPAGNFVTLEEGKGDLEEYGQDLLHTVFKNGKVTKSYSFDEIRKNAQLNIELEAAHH

O=C(NCc1ccc(S(=O)(=O)N2CCCCC2)cc1)c1ccn2nnnc2c1 [N-{[4-(piperidine-1-sulfonyl)phenyl]methyl}-[1,2,3,4]tetrazolo[1,5-a]pyridine-7-carboxamide]
IC50 (NAMPT; NAMPT enzymatic reaction): 3 nM | IC50 (A2780 cells; SRB assay): 9 nM

Cc1ccc(Cl)c(S(=O)(=O)c2ccc(CNC(=O)c3cc4ccncc4o3)cc2)c1Cl
IC50 (NAMPT; NAMPT enzymatic reaction): 10.8 nM | IC50 (A2780 cells; SRB): 16.2 nM

CCCCOc1cccc(S(=O)(=O)c2ccc(CNC(=O)c3cc4ccncc4s3)cc2)c1
IC50 (NAMPT; NAMPT enzymatic reaction): 3.3 nM | IC50 (A2780 cells; SRB): 38.7 nM

O=C(NCc1ccc(S(=O)(=O)N2CCCCC2)cc1)c1ccc2cnccc2n1 [N-{[4-(piperidine-1-sulfonyl)phenyl]methyl}-1,6-naphthyridine-2-carboxamide]
IC50 (NAMPT; NAMPT enzymatic reaction): 12 nM | IC50 (A2780 cells; SRB assay): 10 nM

CC(C)COc1ccc(S(=O)(=O)c2ccc(CNC(=O)c3cc4ccncc4o3)cc2)cc1
IC50 (NAMPT; NAMPT enzymatic assay): 9.4 nM | IC50 (A2780 cells; SRB): 11.6 nM

COc1ccc2cc(S(=O)(=O)c3ccc(CNC(=O)c4cc5ccncc5o4)cc3)ccc2c1 [N-{[4-(6-methoxynaphthalene-2-sulfonyl)phenyl]methyl}furo[2,3-c]pyridine-2-carboxamide]
IC50 (NAMPT; NAMPT enzymatic assay): 3 nM | IC50 (A2780 cells; SRB): 3.6 nM

O=C(NCc1ccc(S(=O)(=O)N2CCCCC2)cc1)c1cn2[nH]ccc2n1 [N-{[4-(piperidine-1-sulfonyl)phenyl]methyl}-1H-imidazo[1,2-b]pyrazole-5-carboxamide]
IC50 (NAMPT; NAMPT enzymatic reaction): 0.8 nM | IC50 (A2780 cells; SRB assay): 11 nM

Cc1cc(C)c(S(=O)(=O)c2ccc(CNC(=O)c3cc4ccncc4o3)cc2)c(C)c1
IC50 (NAMPT; NAMPT enzymatic reaction): 59.2 nM | IC50 (A2780 cells; SRB): 100 to 1000 nM

Cn1ncc2cccc(S(=O)(=O)c3ccc(CNC(=O)c4cc5ccncc5s4)cc3)c21 [N-{[4-(1-methyl-1H-indazole-7-sulfonyl)phenyl]methyl}thieno[2,3-c]pyridine-2-carboxamide]
IC50 (NAMPT; NAMPT enzymatic assay): 4.5 nM | IC50 (A2780 cells; SRB): 10.4 nM

CC(=O)c1cccc(S(=O)(=O)c2ccc(CNC(=O)c3cc4cnccc4[nH]3)cc2)c1 [N-({4-[(3-acetylbenzene)sulfonyl]phenyl}methyl)-1H-pyrrolo[3,2-c]pyridine-2-carboxamide]
IC50 (NAMPT; NAMPT enzymatic reaction): 12 nM | IC50 (A2780 cells; SRB assay): 6 nM

CCc1cccc(S(=O)(=O)c2ccc(CNC(=O)c3cnc4nccn4c3)cc2)c1
IC50 (NAMPT; NAMPT enzymatic reaction): 3.8 nM | IC50 (A2780 cells; SRB): 4.1 nM

COc1cc(F)cc(S(=O)(=O)c2ccc(CNC(=O)c3cnc4nccn4c3)cc2)c1
IC50 (NAMPT; NAMPT enzymatic reaction): 1.6 nM | IC50 (A2780 cells; SRB): 3.3 nM

Cc1c(Cl)cccc1S(=O)(=O)c1ccc(CNC(=O)c2cnc3[nH]ncc3c2)cc1 [N-({4-[(3-chloro-2-methylbenzene)sulfonyl]phenyl}methyl)-1H-pyrazolo[3,4-b]pyridine-5-carboxamide]
IC50 (NAMPT; NAMPT enzymatic reaction): 36.9 nM | IC50 (A2780 cells; SRB): 16.1 nM

O=C(NCc1ccc(S(=O)(=O)c2cc(O)ccc2OC(F)(F)F)cc1)c1cc2ccncc2o1
IC50 (NAMPT; NAMPT enzymatic assay): 6.4 nM | IC50 (A2780 cells; SRB): 11.5 nM

COc1cc(C)c(S(=O)(=O)c2ccc(CNC(=O)c3cc4ccncc4o3)cc2)cc1C
IC50 (NAMPT; NAMPT enzymatic reaction): 12.3 nM | IC50 (A2780 cells; SRB): 12.8 nM

O=C(NCc1ccc(S(=O)(=O)c2ccc(F)cc2Cl)cc1)c1cnc2nccn2c1
IC50 (NAMPT; NAMPT enzymatic reaction): 14.4 nM | IC50 (A2780 cells; SRB): 100 to 1000 nM

O=C(NCc1ccc(S(=O)(=O)c2cc(OC(F)(F)F)ccc2Cl)cc1)c1cnc2nccn2c1
IC50 (NAMPT; NAMPT enzymatic assay): 8 nM | IC50 (A2780 cells; SRB): 12.5 nM

CCOc1cc(Cl)ccc1S(=O)(=O)c1ccc(CNC(=O)c2cc3ccncc3o2)cc1
IC50 (NAMPT; NAMPT enzymatic reaction): 7.2 nM | IC50 (A2780 cells; SRB): 5.1 nM

COc1cccc(S(=O)(=O)c2ccc(CNC(=O)c3cc4ccncc4o3)cc2)c1
IC50 (NAMPT; NAMPT enzymatic reaction): 3.5 nM | IC50 (A2780 cells; SRB): 6.9 nM

COCc1cccc(S(=O)(=O)c2ccc(CNC(=O)c3cc4ccncc4s3)cc2)c1
IC50 (NAMPT; NAMPT enzymatic assay): 2.6 nM | IC50 (A2780 cells; SRB): 6.7 nM

O=C(NCc1ccc(S(=O)(=O)c2ccc(-n3cccn3)c(F)c2)cc1)c1ccc2nccn2c1 [N-[(4-{[3-fluoro-4-(1H-pyrazol-1-yl)benzene]sulfonyl}phenyl)methyl]imidazo[1,2-a]pyridine-6-carboxamide]
IC50 (NAMPT; NAMPT enzymatic assay): 5.37 nM | IC50 (A2780 cells; SRB): 3.41 nM

Cc1cc(F)ccc1S(=O)(=O)c1ccc(CNC(=O)c2cc3ccncc3o2)cc1
IC50 (NAMPT; NAMPT enzymatic reaction): 18.7 nM | IC50 (A2780 cells; SRB): 65.1 nM

Cn1ncc2cccc(S(=O)(=O)c3ccc(CNC(=O)c4cnc5[nH]ncc5c4)cc3)c21 [N-{[4-(1-methyl-1H-indazole-7-sulfonyl)phenyl]methyl}-1H-pyrazolo[3,4-b]pyridine-5-carboxamide]
IC50 (NAMPT; NAMPT enzymatic assay): 91.8 nM | IC50 (A2780 cells; SRB): 86.9 nM

O=C(NCc1ccc(S(=O)(=O)Nc2ccc3c(c2)OCCO3)cc1)c1cc2cnccc2[nH]1 [N-({4-[(2,3-dihydro-1,4-benzodioxin-6-yl)sulfamoyl]phenyl}methyl)-1H-pyrrolo[3,2-c]pyridine-2-carboxamide]
IC50 (NAMPT; NAMPT enzymatic reaction): > 10000 nM | IC50 (A2780 cells; SRB assay): > 10000 nM

COc1ccc(F)c(F)c1S(=O)(=O)c1ccc(CNC(=O)c2cc3cnccc3[nH]2)cc1 [N-({4-[(2,3-difluoro-6-methoxybenzene)sulfonyl]phenyl}methyl)-1H-pyrrolo[3,2-c]pyridine-2-carboxamide]
IC50 (NAMPT; NAMPT enzymatic reaction): 204 nM | IC50 (A2780 cells; SRB): 84.9 nM

O=C(NCc1ccc(S(=O)(=O)c2cccc(C(F)(F)F)c2)cc1)c1ccc2nccn2c1 [N-[(4-{[3-(trifluoromethyl)benzene]sulfonyl}phenyl)methyl]imidazo[1,2-a]pyridine-6-carboxamide]
IC50 (NAMPT; NAMPT enzymatic assay): 8.42 nM | IC50 (A2780 cells; SRB): 1.72 nM

O=C(NCc1ccc(S(=O)(=O)c2ccccc2Oc2ccccc2)cc1)c1cnc2[nH]ncc2c1 [N-({4-[(2-phenoxybenzene)sulfonyl]phenyl}methyl)-1H-pyrazolo[3,4-b]pyridine-5-carboxamide]
IC50 (NAMPT; NAMPT enzymatic reaction): 100 to 1000 nM | IC50 (A2780 cells; SRB): 100 to 1000 nM

O=C(NCc1ccc(S(=O)(=O)c2cccc3c2Oc2ccccc2S3)cc1)c1cnc2nccn2c1 [N-{[4-(phenoxathiine-4-sulfonyl)phenyl]methyl}imidazo[1,2-a]pyrimidine-6-carboxamide]
IC50 (NAMPT; NAMPT enzymatic assay): 2.1 nM | IC50 (A2780 cells; SRB): 4.2 nM

O=C(NCc1ccc(S(=O)(=O)c2cccc(OCCN3CCOCC3)c2)cc1)c1ccc2nccn2c1
IC50 (NAMPT; NAMPT enzymatic assay): 6.8 nM | IC50 (A2780 cells; SRB): 3.4 nM

Cc1ccc(S(=O)(=O)c2ccc(CNC(=O)c3cc4ccncc4o3)cc2)c(Cl)c1
IC50 (NAMPT; NAMPT enzymatic reaction): 14.1 nM | IC50 (A2780 cells; SRB): 14.2 nM

CCCOc1ccc(S(=O)(=O)c2ccc(CNC(=O)c3cc4ccncc4s3)cc2)cc1
IC50 (NAMPT; NAMPT enzymatic reaction): 4.3 nM | IC50 (A2780 cells; SRB): 8.1 nM

O=C(NCc1ccc(S(=O)(=O)c2cccc(-c3ccc(F)c(F)c3)n2)cc1)c1cc2ccncc2s1 [N-({4-[6-(3,4-difluorophenyl)pyridine-2-sulfonyl]phenyl}methyl)thieno[2,3-c]pyridine-2-carboxamide]
IC50 (NAMPT; NAMPT enzymatic assay): 2.2 nM | IC50 (A2780 cells; SRB): 13.2 nM

CCCCc1ccc(S(=O)(=O)c2ccc(CNC(=O)c3cc4cnccc4[nH]3)cc2)cc1
IC50 (NAMPT; NAMPT enzymatic reaction): 14.6 nM | IC50 (A2780 cells; SRB): 35.8 nM

Cn1cc2ccc(S(=O)(=O)c3ccc(CNC(=O)c4cc5ccncc5o4)cc3)cc2n1 [N-{[4-(2-methyl-2H-indazole-6-sulfonyl)phenyl]methyl}furo[2,3-c]pyridine-2-carboxamide]
IC50 (NAMPT; NAMPT enzymatic assay): 3.4 nM | IC50 (A2780 cells; SRB): 2.8 nM

CCOc1ccc(S(=O)(=O)c2ccc(CNC(=O)c3cc4ccncc4o3)cc2)cc1 [N-({4-[(4-ethoxybenzene)sulfonyl]phenyl}methyl)furo[2,3-c]pyridine-2-carboxamide]
IC50 (NAMPT; NAMPT enzymatic reaction): 2.5 nM | IC50 (A2780 cells; SRB): 7.1 nM

O=C(NCc1ccc(S(=O)(=O)c2cccc3c2Oc2ccccc2S3)cc1)c1cc2ccncc2o1 [N-{[4-(phenoxathiine-4-sulfonyl)phenyl]methyl}furo[2,3-c]pyridine-2-carboxamide]
IC50 (NAMPT; NAMPT enzymatic assay): 5.6 nM | IC50 (A2780 cells; SRB): 13.1 nM

O=C(NCc1ccc(S(=O)(=O)c2ccc(CO)cc2)cc1)c1cc2ccncc2s1 [N-[(4-{[4-(hydroxymethyl)benzene]sulfonyl}phenyl)methyl]thieno[2,3-c]pyridine-2-carboxamide]
IC50 (NAMPT; NAMPT enzymatic assay): 3.8 nM | IC50 (A2780 cells; SRB): 6.6 nM

N#Cc1cccc(S(=O)(=O)c2ccc(CNC(=O)c3cnc4nccn4c3)cc2)c1
IC50 (NAMPT; NAMPT enzymatic reaction): 5.9 nM | IC50 (A2780 cells; SRB): 19.2 nM

Cc1ccc(S(=O)(=O)c2ccc(CNC(=O)c3cnc4[nH]ncc4c3)cc2)cn1 [N-{[4-(6-methylpyridine-3-sulfonyl)phenyl]methyl}-1H-pyrazolo[3,4-b]pyridine-5-carboxamide]
IC50 (NAMPT; NAMPT enzymatic assay): 24.1 nM | IC50 (A2780 cells; SRB): 21.3 nM

O=C(NCc1ccc(S(=O)(=O)c2cc(F)cc(Cl)c2)cc1)c1ccc2nccn2c1
IC50 (NAMPT; NAMPT enzymatic reaction): 3.9 nM | IC50 (A2780 cells; SRB): 0.3 nM

O=C(NCc1ccc(S(=O)(=O)c2ccc(Cl)c(C(F)(F)F)c2)cc1)c1ccc2nccn2c1 [N-[(4-{[4-chloro-3-(trifluoromethyl)benzene]sulfonyl}phenyl)methyl]imidazo[1,2-a]pyridine-6-carboxamide]
IC50 (NAMPT; NAMPT enzymatic assay): 9.84 nM | IC50 (A2780 cells; SRB): 3.57 nM

Cc1ccc(S(=O)(=O)c2ccc(CNC(=O)c3ccc4nccn4c3)cc2)cc1C [N-({4-[(3,4-dimethylbenzene)sulfonyl]phenyl}methyl)imidazo[1,2-a]pyridine-6-carboxamide]
IC50 (NAMPT; NAMPT enzymatic reaction): 11.1 nM | IC50 (A2780 cells; SRB): 2.97 nM

CNS(=O)(=O)c1ccccc1S(=O)(=O)c1ccc(CNC(=O)c2cnc3nccn3c2)cc1
IC50 (NAMPT; NAMPT enzymatic assay): 30.4 nM | IC50 (A2780 cells; SRB): 1000 to 10000 nM

Cc1ccc(S(=O)(=O)c2ccc(CNC(=O)c3cnc4nccn4c3)cc2)cc1C
IC50 (NAMPT; NAMPT enzymatic reaction): 1.1 nM | IC50 (A2780 cells; SRB): 1.6 nM

O=C(NCc1ccc(S(=O)(=O)c2cccc(Cl)c2)cc1)c1cnc2nccn2c1
IC50 (NAMPT; NAMPT enzymatic reaction): 1.3 nM | IC50 (A2780 cells; SRB): 1.2 nM

O=C(NCc1ccc(S(=O)(=O)c2cccc3c2sc2ccccc23)cc1)c1cc2ccncc2s1
IC50 (NAMPT; NAMPT enzymatic assay): 1.4 nM | IC50 (A2780 cells; SRB): 4.3 nM

COc1ccc(S(=O)(=O)c2ccc(CNC(=O)c3cc4ccncc4o3)cc2)cc1OC
IC50 (NAMPT; NAMPT enzymatic reaction): 6.2 nM | IC50 (A2780 cells; SRB): 3.8 nM

COc1ccc(S(=O)(=O)c2ccc(CNC(=O)c3ccc4nccn4c3)cc2)c(Cl)c1
IC50 (NAMPT; NAMPT enzymatic reaction): 16.7 nM | IC50 (A2780 cells; SRB): 11.4 nM

CC(C)Oc1cccc(S(=O)(=O)c2ccc(CNC(=O)c3cnc4nccn4c3)cc2)c1F [N-[(4-{[2-fluoro-3-(propan-2-yloxy)benzene]sulfonyl}phenyl)methyl]imidazo[1,2-a]pyrimidine-6-carboxamide]
IC50 (NAMPT; NAMPT enzymatic assay): 1.8 nM | IC50 (A2780 cells; SRB): 7 nM
